Values joined by “and” are separate entries in the source; they are usually repeats but may differ in a detail not shown here. Equal values may be shown once. Read-outs that look alike come from different tables or passages of the source. Marks after values point to notes of the source that are not given here.
Key:
MAO-A [1] = target: T1, MAO-A (Homo sapiens, UniProt P21397); set-up: method as in PMID 23374869; settings: MAO-A inhibition; cited from earlier work
T1 sequence (P21397 1-527): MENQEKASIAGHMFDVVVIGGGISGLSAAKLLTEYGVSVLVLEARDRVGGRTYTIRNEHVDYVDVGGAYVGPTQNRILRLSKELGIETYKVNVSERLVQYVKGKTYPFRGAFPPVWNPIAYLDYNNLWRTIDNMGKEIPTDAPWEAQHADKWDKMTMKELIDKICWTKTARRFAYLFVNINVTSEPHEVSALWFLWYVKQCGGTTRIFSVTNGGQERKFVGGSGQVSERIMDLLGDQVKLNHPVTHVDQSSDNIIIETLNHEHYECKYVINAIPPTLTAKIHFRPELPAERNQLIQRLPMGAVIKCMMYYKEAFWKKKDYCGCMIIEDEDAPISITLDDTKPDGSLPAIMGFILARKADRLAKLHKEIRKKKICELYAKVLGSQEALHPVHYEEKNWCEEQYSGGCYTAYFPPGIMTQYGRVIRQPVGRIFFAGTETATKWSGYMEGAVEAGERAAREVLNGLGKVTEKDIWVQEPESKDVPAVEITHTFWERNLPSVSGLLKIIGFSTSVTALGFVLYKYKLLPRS

[2] = tested on: primary rat hepatocytes and primary human hepatocytes; settings: repetitive administration; cited from earlier work
[3] = tested on: primary human hepatocytes; settings: concentration 0–500 µM; cited from earlier work
primary rat hepatocytes = settings: concentration 0–500 µM; cited from earlier work
MAO-A [4] = target: T1, MAO-A; assay: Isothermal titration calorimetry (ITC) of the interaction of MAO-A with the compounds; assay type: binding
Description: (§1) Protein-ligand interaction analysis was performed using isothermal titration calorimetry (ITC). During the analysis, the heat of uptake or release, due to the interaction of MAO-A with the tested compounds, was recorded. In this way, raw data were obtained in the form of exothermic heat versus time graphs. Additionally, the ligand was injected into 1% DMSO with methanol to subtract the energetic effects of the dilution of the ligand solution. The highest negative change in enthalpy was characterized by the interaction of the enzyme with compounds 3 (−19.19 kJ/mol) and 4 (−13.37 kJ/mol), and the lowest value of ΔH was recorded during interactions with compound 1 (−4.51 kJ/mol). […] Affinity (ΔG) values were more evenly distributed between compound 1, compounds 1 with 4, 2 with 4, and 2 with 3. […] The ability of the ligands to inhibit […] activity was described on the basis of the IC50 parameter.
(§2) A MicroCal PEAQ-ITC200 calorimeter (Malvern, Worcestershire, UK) was used to study the interactions of MAO-A with the compounds. The enzyme and compounds were prepared in 1% DMSO with methanol. The measurements were performed at 36.6 °C. The stirring speed was set to 307 rpm, and a total of 19 injections were performed within 50 min, with the reference power set to 10.00 μcal/s. All sample solutions were thoroughly degassed before use. The calorimetric cell was filled with a 20 μM (350 µL) MAO-A sample, and the syringe (2 µL of injection volume) was loaded with a 1 mM/L solution or/and 5-HT (1 mM/L). The ITC data were processed using MicroCal PEAQ-ITC analysis software with calorimetric routines. The following parameters were determined: the standard interaction Gibbs energy (ΔG), standard interaction enthalpy (ΔH), entropy (ΔS), equilibrium constant (KD), and stoichiometry of reaction (N).

MAO-A [5] = target: T1, MAO-A; assay: Inhibition of 5-HT deamination by the MAO-A enzyme (ITC); assay type: biochemical; settings: for IC50: rate of 5-HT deamination
Description: as §1
Compounds 4 and 4 combined with 2 were at a similar level of about 5 μmol/μmol of the enzyme. Substrate 1, tested with lactones 2 and 3, turned out to be the least beneficial compounds, with a high concentration inhibiting the activity of the enzyme by 50%, and had the least favorable affinity. This effect can be explained by the binding of several compounds in the mixture to different MAO-A residues at the active site and in other regions. Molecular docking can be used in future research to confirm this assumption.
as §2

[6] = set-up: method as in PMID 34060121; settings: rat plasma and liver microsomes; cited from earlier work
[7] = set-up: method as in PMID 23169608; settings: in vivo; cited from earlier work
[8] = ITC, 36.6 °C, mean ± SD, n = 3, read-out: KD
[9] = KM 5-HT 0.35 mmol, mean ± SD, n = 3, read-out: Ki

| SMILES | Ki (MAO-A [1]) [µM] | cell viability [2] | toxicity [3] | toxicity (primary rat hepatocytes) | Kd (MAO-A [4]) [µM] | KA ∗ 10^3 (MAO-A [4]; ITC, 36.6 °C, mean ± SD, n = 3) | ∆G (affinity) (MAO-A [4]; ITC, 36.6 °C, mean ± SD, n = 3) | ∆H (MAO-A [4]; ITC, 36.6 °C, mean ± SD, n = 3) | ∆S (MAO-A [4]; ITC, 36.6 °C, mean ± SD, n = 3) | Ki (MAO-A [5]) [µM] | rank among metabolites of 3-n-butylphthalide [6] | Kd (MAO-A [4]; [8]) [µM] | Ki (MAO-A [5]; [9]) [µM] | rank among circulating human metabolites of 3-n-butylphthalide [7] | IC50 (MAO-A [5]) |
| --- | --- | --- | --- | --- | --- | --- | --- | --- | --- | --- | --- | --- | --- | --- | --- |
| O=C1OCc2ccc(OCCCc3ccccc3)cc21 [6-phenyl-propoxyphthalide] | 0.062 |  |  |  |  |  |  |  |  |  |  |  |  |  |  |
| CCCCC1OC(=O)c2ccccc21 (centres unmarked) [Compound 1, 3-n-butylphthalide] |  | reduction in cell viability | not toxic | not toxic | 24.3 ± 1.39 | 41.15 ± 0.36 ^d 10^3 L/mol | -6.532 ± 0.272 kcal/mol | −4.51 kJ/mol and −4.51 ± 0.02 ^e kJ/mol | 73.85 ± 1.05 ^d J/mol ∗ K | 241 ± 3.55 |  |  |  |  |  |
| CC(O)CCC1OC(=O)c2ccccc21 (centres unmarked) [Compound 2, 3-n-butyl-10-hydroxyphthalide] |  |  |  |  |  | 33.44 ± 0.15 ^a 10^3 L/mol | −26.79 ± 1.55 ^j kJ/mol | −7.77 ± 0.01 ^e kJ/mol | 61.55 ± 1.84 ^d J/mol ∗ K |  | main metabolite | 29.9 ± 1.09 | 994 ± 3.18 | dominant circulating human metabolite |  |
| O=C1OC(CCCCO)c2ccccc21 (centres unmarked) [Compound 3, 3-n-butyl-11-hydroxyphthalide] |  |  |  |  |  | 4.18 ± 0.35 ^e 10^3 L/mol | −23.49 kJ/mol and −23.49 ± 1.42 ^i kJ/mol | −19.19 kJ/mol and −19.19 ± 0.01 ^f kJ/mol | 13.92 ± 0.92 ^a J/mol ∗ K |  |  | 239 ± 4.25 | < 0.001 |  | 1.29 μmol/μmol of enzyme |
| O=C(O)CCCC1OC(=O)c2ccccc21 (centres unmarked) [Compound 4, 3-n-butylphthalide-11-oic acid] |  |  |  |  |  | 14.83 ± 0.25 ^e 10^3 L/mol | −28.42 kJ/mol and −28.42 ± 1.43 ^j kJ/mol | −13.37 kJ/mol and −13.37 ± 0.02 ^f kJ/mol | 48.71 ± 1.05 ^a J/mol ∗ K |  |  | 67.4 ± 3.15 | 128 ± 1.25 |  | about 5 μmol/μmol of enzyme |

Reference: PMC10342118, “Microbial Metabolites of 3-n-butylphthalide as Monoamine Oxidase A Inhibitors” (International Journal of Molecular Sciences, 2023)
